Measured values reported in PMC7256108 (Cellular and Molecular Life Sciences: CMLS, 2019).
Residue numbers refer to the chain shown, from its start. Like-named read-outs stand apart in the source and are kept apart here.

What was measured:
Assay type in all cases: cell-based
OR2W1 wt = molecular target: T1, OR2W1 wt (Homo sapiens, UniProt Q9Y3N9); assay: cAMP-luminescence GloSensor assay, recombinant OR2W1 wt
T1 construct: 39aa rho-tag; expressed in transfected cells; host or cells: NxG 108CC15 or HEK-293 cells
T1 sequence (Q9Y3N9 1-320): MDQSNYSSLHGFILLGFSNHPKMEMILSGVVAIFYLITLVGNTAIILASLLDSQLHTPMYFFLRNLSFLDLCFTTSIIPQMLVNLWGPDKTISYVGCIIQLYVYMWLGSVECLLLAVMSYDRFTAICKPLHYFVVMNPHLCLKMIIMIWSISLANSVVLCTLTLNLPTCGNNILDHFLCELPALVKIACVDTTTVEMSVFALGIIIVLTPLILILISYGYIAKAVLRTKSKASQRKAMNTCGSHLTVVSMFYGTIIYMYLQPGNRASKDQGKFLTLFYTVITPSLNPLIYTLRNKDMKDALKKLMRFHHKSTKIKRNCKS
Method: (§1) The assay was performed as reported above.
(§2) All data are presented as mean ± SD.

OR1A1 wt = molecular target: T2, OR1A1 wt (Homo sapiens, UniProt Q9P1Q5); assay: cAMP-luminescence GloSensor assay, recombinant OR1A1 wt; conditions: for EC50: OR1A1 wt
T2 construct: 39aa rho-tag; expressed in transfected cells; host or cells: NxG 108CC15 or HEK-293 cells
T2 sequence (Q9P1Q5 1-309): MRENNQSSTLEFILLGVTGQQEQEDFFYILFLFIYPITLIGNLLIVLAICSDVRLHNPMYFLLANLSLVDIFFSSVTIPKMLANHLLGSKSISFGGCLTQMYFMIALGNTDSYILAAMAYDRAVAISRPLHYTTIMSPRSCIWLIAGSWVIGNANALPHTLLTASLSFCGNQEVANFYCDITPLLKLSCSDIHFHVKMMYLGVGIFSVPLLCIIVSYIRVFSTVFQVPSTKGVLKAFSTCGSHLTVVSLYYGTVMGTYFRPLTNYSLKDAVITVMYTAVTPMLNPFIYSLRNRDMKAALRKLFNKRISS
Method: as §1, §2

OR2W1 L202S = molecular target: T3, OR2W1 L202S (Homo sapiens, UniProt Q9Y3N9, L202S); assay: GloSensor assay, OR2W1 L202S
T3 construct: 39aa rho-tag; expressed in transfected cells; host or cells: NxG 108CC15 or HEK-293 cells
T3 sequence (Q9Y3N9 1-320 L202S): T1 sequence (Q9Y3N9 1-320) with L202S
Method: (§3) All receptor variants used were generated by PCR-based site-directed mutagenesis in two steps. Gene-specific primers (mutation primers) were used according to Table S2 and Table S3. The mutation primers, which carried the changed nucleotides, were designed overlapping.
as §1, §2

OR2W1 L202C = molecular target: T4, OR2W1 L202C (Homo sapiens, UniProt Q9Y3N9, L202C); assay: GloSensor assay, OR2W1 L202C
T4 construct: full-length gene-specific forward and reverse primers were added; 39aa rho-tag; expressed in transfected cells; host or cells: NxG 108CC15 or HEK-293 cells
T4 sequence (Q9Y3N9 1-320 L202C): T1 sequence (Q9Y3N9 1-320) with L202C
Method: as §3, §1, §2

OR2W1 S109A = molecular target: T5, OR2W1 S109A (Homo sapiens, UniProt Q9Y3N9, S109A); assay: GloSensor assay, OR2W1 S109A
T5 construct: 39aa rho-tag; expressed in transfected cells; host or cells: NxG 108CC15 or HEK-293 cells
T5 sequence (Q9Y3N9 1-320 S109A): T1 sequence (Q9Y3N9 1-320) with S109A
Method: as §3, §1, §2

OR2W1 Y252A = molecular target: T6, OR2W1 Y252A (Homo sapiens, UniProt Q9Y3N9, Y252A); assay: GloSensor assay, OR2W1 Y252A; conditions: ligands 300 µmol/L
T6 construct: 39aa rho-tag; expressed in transfected cells; host or cells: NxG 108CC15 or HEK-293 cells
T6 sequence (Q9Y3N9 1-320 Y252A): T1 sequence (Q9Y3N9 1-320) with Y252A
Method: as §3, §1, §2

OR2W1 Y259A = molecular target: T7, OR2W1 Y259A (Homo sapiens, UniProt Q9Y3N9, Y259A); assay: GloSensor assay, OR2W1 Y259A; conditions: ligands 300 µmol/L
T7 construct: full-length gene-specific forward and reverse primers were added; 39aa rho-tag; expressed in transfected cells; host or cells: NxG 108CC15 or HEK-293 cells
T7 sequence (Q9Y3N9 1-320 Y259A): T1 sequence (Q9Y3N9 1-320) with Y259A
Method: as §3, §1, §2

OR2W1 Y252A/Y259A = molecular target: T8, OR2W1 Y252A/Y259A (Homo sapiens, UniProt Q9Y3N9, Y252A/Y259A); assay: GloSensor assay, OR2W1 Y252A/Y259A; conditions: ligands 300 µmol/L
T8 construct: full-length gene-specific forward and reverse primers were added; 39aa rho-tag; expressed in transfected cells; host or cells: NxG 108CC15 or HEK-293 cells
T8 sequence (Q9Y3N9 1-320 Y252A/Y259A): T1 sequence (Q9Y3N9 1-320) with Y252A, Y259A
Method: as §3, §1, §2

OR2T11 C119R = molecular target: T9, OR2T11 C119R (Homo sapiens, UniProt Q8NH01, C119R); assay: GloSensor assay, OR2T11 C119R
T9 construct: expressed in transfected cells; host or cells: NxG 108CC15 or HEK-293 cells
Description: as §2
Concentration-response relation of 3-mercapto-2-methylpentan-1-ol on OR2M3 in the absence or presence of each 30 µmol/L CuCl2 (a), and 30 µmol/L CuCl2 and the copper chelator TEPA (b). Concentration-response relation of 2-methylpropane-2-thiol on OR2T11 C119R in the absence or presence of 30 µmol/L CuCl2 (c). Concentration-response relation of 3-mercapto-2-methylpentan-1-ol on OR2M3 in the absence or presence of each 30 µmol/L FeCl3 (d); NiCl2 (e); CoCl2 (f); ZnSO4 (g); AgAc (h); AgNO3 (i) and colloidal silver (j). Comparison of efficacies of 20 µmol/L 3-mercapto-2-methylpentan-1-ol on OR2M3 in the absence or presence of different metal ions at 30 µmol/L (k). Note that the same data set in the absence of supplemented Cu^2+ (grey) is given in sub-panels (a-b, d-j) for didactic reasons. Data were mock control-subtracted, normalized to the OR2M3 wt signal in response to 3-mercapto-2-methylpentan-1-ol (20 µmol/L), measured in the absence of Cu^2+ (a-b, d-k) or rather normalized to the OR2T11 C119R signal in response to 2-methylpropan-2-thiol (100 µmol/L), measured in the presence of Cu^2+ (c), and shown as mean ± SD (n = 3 – 6). RLU = relative luminescence unit. 3MMP = 3-mercapto-2-methylpentan-1-ol. Note that for didactical reasons the concentration-response relations in Fig. 1b and Fig. S5a are the identical data set. […]

[1] = molecular target: sphingosine-1-phosphate receptor 4 (S1P4); assay: cAMP-luminescence GloSensor assay, endogenously expressed S1P4; conditions: footnote b: EC50 in nmol/L
Method: as §1, §2

OR2M3 wt = molecular target: T10, OR2M3 wt (Homo sapiens, UniProt Q8NG83); assay: cAMP-luminescence GloSensor assay, recombinant OR2M3 wt; conditions: no odorant
T10 construct: full-length gene-specific forward and reverse primers were added; 39aa rho-tag; expressed in transfected cells; host or cells: NxG 108CC15 or HEK-293 cells
T10 sequence (Q8NG83 1-312): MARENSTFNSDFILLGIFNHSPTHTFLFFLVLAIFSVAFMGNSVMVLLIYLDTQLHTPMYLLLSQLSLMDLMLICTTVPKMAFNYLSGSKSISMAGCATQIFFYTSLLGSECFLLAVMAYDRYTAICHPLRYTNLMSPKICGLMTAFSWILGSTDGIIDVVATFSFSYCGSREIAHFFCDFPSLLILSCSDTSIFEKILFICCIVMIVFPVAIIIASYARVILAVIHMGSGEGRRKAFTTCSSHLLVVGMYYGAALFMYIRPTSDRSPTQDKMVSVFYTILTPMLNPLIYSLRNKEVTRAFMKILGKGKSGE
Method: as §1, §2

[2] = 10 µmol/L Cu^2+, read-out: EC50 in the presence of Cu^2+
[3] = mean ± SD (n = 3–5), read-out: EC50 in the absence of Cu^2+
[4] = read-out: EC50 in the absence of Cu^2+
[5] = EC50 in the presence of Cu^2+, 10 µmol/L Cu^2+

T9 sequence (Q8NH01 whole entry C119R): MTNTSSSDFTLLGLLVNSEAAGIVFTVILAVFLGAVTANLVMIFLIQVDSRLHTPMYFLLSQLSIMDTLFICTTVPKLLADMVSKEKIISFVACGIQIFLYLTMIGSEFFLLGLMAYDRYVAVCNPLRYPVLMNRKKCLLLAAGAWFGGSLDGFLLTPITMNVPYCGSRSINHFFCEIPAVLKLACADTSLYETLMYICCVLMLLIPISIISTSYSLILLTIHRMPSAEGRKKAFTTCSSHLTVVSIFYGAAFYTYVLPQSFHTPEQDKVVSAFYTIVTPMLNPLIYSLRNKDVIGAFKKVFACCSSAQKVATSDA

## SCCc1ccccc1 [2-Phenylethanethiol, 2-phenylethanethiol]
OR2W1 wt; [2]
  EC50: 106.2 ± 0.93 µM
OR2W1 wt; [3]
  EC50: 37.8 ± 0.62 µM
OR1A1 wt; [2]
  EC50: 73.1 ± 16.4 µM
OR1A1 wt; [4]
  EC50: 206 ± 21.5 µM
OR1A1 wt; presence of Cu^2+ at 10 µmol/L
  efficacy in activating OR1A1: reduced
OR2W1 L202S; [2]
  EC50: 96.7 ± 4.66 µM
OR2W1 L202S; [4]
  EC50: 97 ± 13 µM
OR2W1 L202C; [2]
  EC50: 63.4 ± 3.77 µM
OR2W1 L202C; [4]
  EC50: 65.1 ± 10.8 µM
OR2W1 S109A; [2]
  EC50: 38.9 ± 5.38 µM
OR2W1 S109A; [4]
  EC50: 34.4 ± 9.98 µM
OR2W1 Y252A
  agonist function in mutant receptor: non-functional
OR2W1 Y259A
  agonist function in mutant receptor: non-functional
OR2W1 Y252A/Y259A
  agonist function in mutant receptor: non-functional

## CC(C)(C)S [2-methylpropane-2-thiol]
OR2T11 C119R; 30 µmol/L CuCl2, normalized to OR2T11 C119R signal (100 µmol/L agonist) in the presence of Cu^2+
  Relative amplitude: 1
OR2T11 C119R; presence of 30 µmol/L CuCl2 (footnote d)
  EC50: 0.25 ± 0.19 µM

## CCCC(S)CCOC(C)=O (stereo not shown) [3-Mercaptohexyl acetate, 3-mercaptohexyl acetate]
OR2W1 wt; [2]
  EC50: 121 ± 1.59 µM
OR2W1 wt; [3]
  EC50: 132 ± 20.9 µM
OR1A1 wt; [2]
  EC50: 354 ± 113 µM
OR1A1 wt; [4]
  EC50: 405 ± 86.7 µM
OR2W1 L202S; [2]
  EC50: 311 ± 22.1 µM
OR2W1 L202S; [4]
  EC50: 146 ± 6.48 µM
OR2W1 L202C; [2]
  EC50: 114 ± 10.5 µM
OR2W1 L202C; [4]
  EC50: 98.9 ± 7.49 µM
OR2W1 S109A; [2]
  EC50: 127 ± 84.9 µM
OR2W1 S109A; [4]
  EC50: 146 ± 23 µM
OR2W1 Y252A
  agonist function in mutant receptor: non-functional
OR2W1 Y259A
  agonist function in mutant receptor: non-functional
OR2W1 Y252A/Y259A
  agonist function in mutant receptor: non-functional

## C=C(C)[C@@H]1CC=C(C)C(=O)C1 [(R)-(-)-Carvone, (R)-(-)-carvone]
OR1A1 wt; [2]
  EC50: 159 ± 43.1 µM
OR1A1 wt; [4]
  EC50: 126 ± 34.1 µM

## C=CCOC(=O)Cc1ccccc1 [Allyl phenyl acetate, allyl phenyl acetate]
OR2W1 wt; EC50 in the absence of Cu^2+, mean ± SD (n = 3–5)
  EC50: 64.4 ± 3.58 µM
OR2W1 wt; [5]
  EC50: 55.2 ± 8.59 µM
OR2W1 L202S; EC50 in the absence of Cu^2+
  EC50: 37.6 ± 11.7 µM
OR2W1 L202S; [5]
  EC50: 46 ± 14.3 µM
OR2W1 L202C; EC50 in the absence of Cu^2+
  EC50: 130 ± 82.5 µM
OR2W1 L202C; [5]
  EC50: 73 ± 42.1 µM
OR2W1 S109A; EC50 in the absence of Cu^2+
  EC50: 46 ± 11.6 µM
OR2W1 S109A; [5]
  EC50: 119 ± 19.9 µM
OR2W1 Y252A
  agonist function in mutant receptor: non-functional
OR2W1 Y259A
  agonist function in mutant receptor: non-functional
OR2W1 Y252A/Y259A
  agonist function in mutant receptor: non-functional

## COCCN=C1S/C(=C\c2cc(C)n(-c3ccc(F)cc3F)c2C)C(=O)N1C [CYM50308]
[1]; [2]
  EC50: 0.344 ± 0.091 µM
[1]; [4]
  EC50: 0.517 ± 0.0746 µM

## [Cl][Cu][Cl] [Cu^2+, copper(II) chloride]
OR2M3 wt; Cu^2+ supplementation > 10 µmol/L
  odorant-independent constitutive activity of OR2M3: decreased
OR2M3 wt; Cu^2+ supplementation of 10 µmol/L
  basal activity of OR2M3: did not inhibit
